The record followed here is patent US6242443A, “1,2,4-benzothiadiazine derivatives, their preparation and use” (Novo Nordisk AIS, priority 1996, dated 2001).

The first test relates to RIN 5F cells. Kind of test: 86Rb+ efflux from a β-cell line (increased Rb-efflux in RIN 5F cells). The test is classed as cell-based. The following applies: 1 h at room temperature, pH 7.1. The method, then:
^86 Rb^+ efflux from a β-cell line
The RIN 5F cell line was grown in RPMI 1640 with Glutamax I, supplemented with 10% fetal calf serum (from GibcoBRL, Scotland, UK) and maintained in an atmosphere of 5% CO2 /95% air at 37° C. The cells were detached with a Trypsin-EDTA solution (from GibcoBRL, Scotland, UK), resuspended in medium, added 1 mCi/ml ^86 Rb^+ and replated into microtiter plates (96 well cluster 3596, sterile, from Costar Corporation,MA, USA) at a density of 50000 cells/well in 100 μl/well, and grown 24 hours before use in assay.
The plates were washed 4 times with Ringer buffer (150 mM NaCl, 10 mM Hepes, 3.0 mM KCl, 1.0 mM CaCl2, 20 mM Sucrose, pH 7.1). Eighty μl Ringer buffer and 1 μl control- or test compound dissolved in DMSO was added. After incubation 1 h at room temperature with a lid, 50 μl of the supernatant was transferred to PicoPlates (Packard Instrument Company, CT, USA) and 100 μl MicroScint40 (Packard Instrument Company, CT, USA) added. The plates were counted in TopCount (Packard Instrument Company, CT, USA) for 1 min/well at the ^32 P program.
The calculation of EC50 and Emax was done by SlideWrite (Advanced Graphics Software, Inc., CA, USA) using a four parameter logistic curve: y=(a-d)/(1+(x/c)^b)+d, where a=the activity estimated at concentration zero, b=a slope factor, c=the concentration at the middle of the curve and, d=the activity estimated at infinite concentration. EC50 =c and Emax =d, when the curve is turned of at infinite concentrations.
`O=S1(=O)N=C(NCC2CCCCC2)Nc2ccc(Cl)cc21` [Example 66, 7-Chloro-3-(cyclohexylmethyl)amino-4H-1,2,4-benzothiadiazine 1,1-dioxide] displayed an EC50 of 9.4 µM. `CC(C)C(C)NC1=NS(=O)(=O)c2cc(Cl)c(Cl)cc2N1` (stereo not shown) [Example 26, 6,7-Dichloro-3-(1,2-dimethylpropyl)amino-4H-1,2,4-benzothiadiazine 1,1-dioxide]: the EC50 worked out at 12.9 µM.

Molecule `O=S1(=O)N=C(NCc2ccccc2)Nc2ccc(I)cc21` [Example 86, 3-Benzylamino-7-iodo-4H-1,2,4-benzothiadiazine 1,1-dioxide] had an EC50 of 13 µM.

A further test deals with rat aorta rings. Kind of test: Relaxation of rat aorta rings (phenylephrine-contracted). The class given is cell-based. The following applies: rat thoracic aorta rings contracted with phenylephrine to 80% of maximum response, cumulative addition; read-out: EC50 (concentration required to evoke a 50% relaxation of the tissue). The method, then:
The activity of the compounds as potassium channel openers can also be measured as relaxation of rat aortas rings according to the following procedure:
A section of rat thoracic aorta between the aortic arch and the diaphragm was dissected out and mounted as ring preparations as described by Taylor P. D. et al, Brit J. Pharmacol, 111, 42-48 (1994).
After a 45 min. equilibration period under a tension of 2 g, the preparations were contracted to achieve 80% of the maximum response using the required concentration of phenylephrine. When the phenylephrine response reached a plateau, potential vasodilatory agents were added cumulatively to the bath in small volumes using half log molar increments at 2 min intervals. Relaxation was expressed at the percentage of the contracted tension. The potency of a compound was expressed as the concentration required to evoke a 50% relaxation of the tissue.
Take `CCNC1=NS(=O)(=O)c2cc(F)ccc2N1` [Example 101, 3-Ethylamino-7-fluoro-4H-1,2,4-benzothiadiazine 1,1-dioxide]: the EC50 came out at 14.1 µM. On to `C[C@H](NC1=NS(=O)(=O)c2cc(I)ccc2N1)c1ccccc1` [Example 88, 7-Iodo-3-(S)-(1-phenylethyl)amino-4H-1,2,4-benzothiadiazine 1,1-dioxide], for which the EC50 came out at 32.7 µM. With `CCNC1=NS(=O)(=O)c2cc(Br)ccc2N1` [Example 94, 7-Bromo-3-ethylamino-4H-1,2,4-benzothiadiazine 1,1-dioxide], the EC50 amounted to 4.8 µM. The same measure, in the same setting: the figure for `CC(C)NC1=NS(=O)(=O)c2ccc(C(F)(F)F)cc2N1` [Example 50, 3-Isopropylamino-6-trifluoromethyl-4H-1,2,4-benzothiadiazine 1,1-dioxide] is 5.2 µM.
